From patent US11446287B2, “Compounds and methods for EP300 or CBP modulation and indications therefor” (Opna Immuno-Oncology SA, priority 2019, dated 2022)

target: T1, Recombinant human CBP containing the bromodomain (CBP-BD (1043-1159)) (Homo sapiens, UniProt Q92793); test: CBP Alphascreen binding assay; settings: read-out: CREBBP (CBP) IC50
T1 construct: Recombinant human CBP bromodomain (CBP-BD (1043-1159)); made in house; host or cells: E. coli BL21-CodonPlus (DE3), modified pET vector
Method in brief: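 Buffer: 50 mM HEPES pH 7.5, 50 mM NaCl, 0.01% BSA, 0.01% Triton X-100, 2 mM DTT. The signal was normalised to plate controls and fitted with a four-parameter curve to give IC50.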

T1 sequence (Q92793 1081-1197): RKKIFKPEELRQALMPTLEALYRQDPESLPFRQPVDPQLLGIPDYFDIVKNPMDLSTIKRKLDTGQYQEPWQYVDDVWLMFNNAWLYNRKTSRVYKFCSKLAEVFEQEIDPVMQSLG

**Q.** Which IC50 does the source give for `Cc1noc(C)c1-c1cnc2c(c1)c(-c1c(Cl)cc(C(=O)O)cc1Cl)cn2C(C)c1ccccn1` (stereo not shown) [P-0095, 3,5-dichloro-4-(5-(3,5-dimethylisoxazol-4-yl)-1-(1-(pyridin-2-yl)ethyl)-1H-pyrrolo[2,3-b]pyridin-3-yl)benzoic acid] here?
**A.** The IC50 was 0.0001 to 1 µM.

**Q.** How did the IC50 turn out when `COc1cc(C(=O)O)cc(OC)c1-n1cc(CC2CCC2)c2ncc(-c3c(C)noc3C)cc21` [P-0067, 4-(3-(cyclobutylmethyl)-6-(3,5-dimethylisoxazol-4-yl)-1H-pyrrolo[3,2-b]pyridin-1-yl)-3,5-dimethoxybenzoic acid] was run?
**A.** The IC50 was 0.0001 to 1 µM.

**Q.** Which IC50 does the source give for `Cc1noc(C)c1-c1cnc2c(c1)c(-c1cccc(C(=O)O)c1)cn2C(C1CCC1)C1CCC1` [P-0072, 3-(1-(dicyclobutylmethyl)-5-(3,5-dimethylisoxazol-4-yl)-1H-pyrrolo[2,3-b]pyridin-3-yl)benzoic acid] here?
**A.** The IC50 was 0.0001 to 1 µM.

**Q.** How did the IC50 turn out when `Cc1noc(C)c1-c1cnc2c(c1)c(-c1cccc(C(=O)O)c1)cn2C(c1ccccn1)C1CCC1` (stereo not shown) [P-0073, 3-(1-(cyclobutyl(pyridin-2-yl)methyl)-5-(3,5-dimethylisoxazol-4-yl)-1H-pyrrolo[2,3-b]pyridin-3-yl)benzoic acid] was run?
**A.** The IC50 was 0.0001 to 1 µM.

**Q.** How did the IC50 turn out when `COc1c(-n2cc(CC3CCC3)c3ncc(-c4c(C)noc4C)cc32)ccc(C(=O)O)c1F` [P-0087, 4-(3-(cyclobutylmethyl)-6-(3,5-dimethylisoxazol-4-yl)-1H-pyrrolo[3,2-b]pyridin-1-yl)-2-fluoro-3-methoxybenzoic acid] was run?
**A.** The IC50 was 0.0001 to 1 µM.

**Q.** With `Cc1noc(C)c1-c1cnc2c(c1)c(-c1ccc(C(=O)O)cc1)cn2C(c1ccccn1)C1CCCCC1` (stereo not shown) [P-0004, 4-(1-(cyclohexyl(pyridin-2-yl)methyl)-5-(3,5-dimethylisoxazol-4-yl)-1H-pyrrolo[2,3-b]pyridin-3-yl)benzoic acid] as the molecule, how does the IC50 read?
**A.** The IC50 was 0.0001 to 1 µM.

**Q.** `Cc1noc(C)c1-c1cnc2c(c1)c(-c1c(F)ccc(NS(C)(=O)=O)c1F)cn2C(C)c1ccccn1` (stereo not shown) [P-0096, N-(3-(5-(3,5-dimethylisoxazol-4-yl)-1-(1-(pyridin-2-yl)ethyl)-1H-pyrrolo[2,3-b]pyridin-3-yl)-2,4-difluorophenyl)methanesulfonamide] was tested. Which IC50 did it give?
**A.** Its IC50 is 1 to 8 µM.

**Q.** How did the IC50 turn out when `Cc1noc(C)c1-c1cnc2c(c1)c(C1=CCC(C(=O)O)CC1)cn2Cc1ccccc1` (stereo not shown) [P-0093, 4-(1-benzyl-5-(3,5-dimethylisoxazol-4-yl)-1H-pyrrolo[2,3-b]pyridin-3-yl)cyclohex-3-ene-1-carboxylic acid] was run?
**A.** Its IC50 is 0.0001 to 1 µM.

**Q.** With `Cc1noc(C)c1-c1cnc2c(c1)c(-c1cccc(C(=O)NC#N)c1)cn2Cc1ccccc1` [P-0078, 3-(1-benzyl-5-(3,5-dimethylisoxazol-4-yl)-1H-pyrrolo[2,3-b]pyridin-3-yl)-N-cyanobenzamide] as the molecule, how does the IC50 read?
**A.** Its IC50 is 1 to 8 µM.

**Q.** `Cc1noc(C)c1-c1cnc2c(c1)c(-c1cccc(C(=O)NS(C)(=O)=O)c1)cn2Cc1ccccc1` [P-0092, 3-(1-benzyl-5-(3,5-dimethylisoxazol-4-yl)-1H-pyrrolo[2,3-b]pyridin-3-yl)-N-(methylsulfonyl)benzamide] was tested. Which IC50 did it give?
**A.** The IC50 was 1 to 8 µM.

**Q.** `Cc1noc(C)c1-c1cnc2c(CC3CCC3)cn(-c3ccc(C#N)cc3)c2c1` [P-0076, 4-(3-(cyclobutylmethyl)-6-(3,5-dimethylisoxazol-4-yl)-1H-pyrrolo[3,2-b]pyridin-1-yl)benzonitrile] was tested. Which IC50 did it give?
**A.** Its IC50 is 1 to 8 µM.

**Q.** How did the IC50 turn out when `Cc1noc(C)c1-c1cnc2c(c1)c(-c1cccc(C(=O)O)c1)cn2C(=O)c1ccccc1` [P-0085, 3-(1-benzoyl-5-(3,5-dimethylisoxazol-4-yl)-1H-pyrrolo[2,3-b]pyridin-3-yl)benzoic acid] was run?
**A.** The IC50 was 1 to 8 µM.

**Q.** For `Cc1cccc(Cn2cc(-c3cccc(C(=O)O)c3)c3cc(-c4c(C)noc4C)cnc32)c1` [P-0062, 3-(5-(3,5-dimethylisoxazol-4-yl)-1-(3-methylbenzyl)-1H-pyrrolo[2,3-b]pyridin-3-yl)benzoic acid], which IC50 is on record?
**A.** The IC50 was 0.0001 to 1 µM.

**Q.** How did the IC50 turn out when `Cc1noc(C)c1-c1cnc2c(C(=O)C3CC3)c(O)n(-c3ccnc(C(=O)O)c3)c2c1` [P-0084, 4-(3-(cyclopropanecarbonyl)-6-(3,5-dimethylisoxazol-4-yl)-2-hydroxy-1H-pyrrolo[3,2-b]pyridin-1-yl)picolinic acid] was run?
**A.** The IC50 was 0.0001 to 1 µM.

**Q.** With `COc1cccc(Cn2cc(-c3cccc(C(=O)O)c3)c3cc(-c4c(C)noc4C)cnc32)c1` [P-0056, 3-(5-(3,5-dimethylisoxazol-4-yl)-1-(3-methoxybenzyl)-1H-pyrrolo[2,3-]pyridin-3-yl)benzoic acid] as the molecule, how does the IC50 read?
**A.** The IC50 was 0.0001 to 1 µM.

**Q.** Which IC50 does the source give for `Cc1noc(C)c1-c1cnc2c(c1)c(-c1ccc(C(=O)O)cc1)cn2C(C)c1ccccn1` (stereo not shown) [P-0080, 4-(5-(3,5-dimethylisoxazol-4-yl)-1-(1-(pyridin-2-yl)ethyl)-1H-pyrrolo[2,3-b]pyridin-3-yl)benzoic acid] here?
**A.** Its IC50 is 1 to 8 µM.

**Q.** With `Cc1noc(C)c1-c1cnc2c(C(=O)c3ccccc3Cl)cn(-c3ccnc(C(=O)O)c3)c2c1` [P-0089, 4-(3-(2-chlorobenzoyl)-6-(3,5-dimethylisoxazol-4-yl)-1H-pyrrolo[3,2-b]pyridin-1-yl)picolinic acid] as the molecule, how does the IC50 read?
**A.** The IC50 was 0.0001 to 1 µM.

**Q.** How did the IC50 turn out when `Cc1noc(C)c1-c1cnc2c(Cc3cccc(Cl)c3)cn(-c3ccnc(C(=O)O)c3)c2c1` [P-0090, 4-(3-(3-chlorobenzyl)-6-(3,5-dimethylisoxazol-4-yl)-1H-pyrrolo[3,2-b]pyridin-1-yl)picolinic acid] was run?
**A.** The IC50 was 0.0001 to 1 µM.

**Q.** For `Cc1noc(C)c1-c1cnc2c(CC3CCC3)cn(-c3ccc(C(=O)O)cc3OC(F)F)c2c1` [P-0064, 4-(3-(cyclobutylmethyl)-6-(3,5-dimethylisoxazol-4-yl)-1H-pyrrolo[3,2-b]pyridin-1-yl)-3-(difluoromethoxy)benzoic acid], which IC50 is on record?
**A.** Its IC50 is 0.0001 to 1 µM.

**Q.** For `Cc1noc(C)c1-c1cnc2c(c1)c(-c1ccc(C(=O)O)cc1OC(F)F)cn2[C@@H](C)c1ccccn1` [P-0071, (S)-3-(difluoromethoxy)-4-(5-(3,5-dimethylisoxazol-4-yl)-1-(1-(pyridin-2-yl)ethyl)-1H-pyrrolo[2,3-b]pyridin-3-yl)benzoic acid], which IC50 is on record?
**A.** The IC50 was 0.0001 to 1 µM.

**Q.** With `Cc1noc(C)c1-c1cnc2c(c1)c(-c1cccc(C(=O)NO)c1)cn2Cc1ccccc1` [P-0079, 3-(1-benzyl-5-(3,5-dimethylisoxazol-4-yl)-1H-pyrrolo[2,3-b]pyridin-3-yl)-N-hydroxybenzamide] as the molecule, how does the IC50 read?
**A.** The IC50 was 0.0001 to 1 µM.

**Q.** `Cc1noc(C)c1-c1cnc2c(c1)c(-c1ccc(C(=O)O)cc1)cn2[C@@H](C)c1ccccn1` [P-0001, (S)-4-(5-(3,5-dimethylisoxazol-4-yl)-1-(1-(pyridin-2-yl)ethyl)-1H-pyrrolo[2,3-b]pyridin-3-yl)benzoic acid] was tested. Which IC50 did it give?
**A.** The IC50 was 0.0001 to 1 µM.

**Q.** `Cc1noc(C)c1-c1cnc2c(c1)c(-c1cccc(S(N)(=O)=O)c1)cn2Cc1ccccc1` [P-0081, 3-(1-benzyl-5-(3,5-dimethylisoxazol-4-yl)-1H-pyrrolo[2,3-b]pyridin-3-yl)benzenesulfonamide] was tested. Which IC50 did it give?
**A.** Its IC50 is 1 to 8 µM.

**Q.** For `Cc1noc(C)c1-c1cnc2c(CC3CCC3)cn(-c3ccc(S(C)(=O)=O)c(F)c3)c2c1` [P-0068, 4-(3-(cyclobutylmethyl)-1-(3-fluoro-4-(methylsulfonyl)phenyl)-1H-pyrrolo[3,2-b]pyridin-6-yl)-3,5-dimethylisoxazole], which IC50 is on record?
**A.** The IC50 was 0.0001 to 1 µM.

**Q.** How did the IC50 turn out when `Cc1noc(C)c1-c1cnc2c(CC3CCC3)cn(-c3ccnc(C#N)c3)c2c1` [P-0077, 4-(3-(cyclobutylmethyl)-6-(3,5-dimethylisoxazol-4-yl)-1H-pyrrolo[3,2-b]pyridin-1-yl)picolinonitrile] was run?
**A.** Its IC50 is 0.0001 to 1 µM.
